Patent US20040058957A1, “Benzothiophene derivatives and herbicidal compositions containing the same” (priority 2000, published 2004)

Experiments:
paddy rice = assay: Submersion test, treatment 3 days after transplantation: injury to paddy rice; assay type: in vivo; design: key: 0: No injury; 1: Substantially no injury; 2: Slight injury; 3: Some injury; 4: Remarkable injury; 5: Almost all crops dead; conditions: rated 30 days after application
Experimental: A mixture consisting of 57 parts by weight of talc and 40 parts by weight of bentonite as carrier and 3 parts by weight of sodium alkylbenzenesulfonate as surfactant was pulverized and mixed uniformly to obtain a carrier for wettable powder. […] Then, rice seedlings of 2.5 leaf stage were transplanted in the soil. Water was pored into the pot so as to submerge the soil at a depth of 3 cm. The pot was placed in a greenhouse maintained at 20 to 25° C. for vegetation. […] After 30 days from the application of the herbicidal composition, the herbicidal effect and injury to the paddy rice were determined. […] The injury to crops was evaluated according to the following ratings: [table]

Scirpus juncoides [1] = assay: Submersion test, treatment 3 days after transplantation: herbicidal effect; assay type: in vivo; conditions: rated 30 days after application
Experimental: (§1) A mixture consisting of 57 parts by weight of talc and 40 parts by weight of bentonite as carrier and 3 parts by weight of sodium alkylbenzenesulfonate as surfactant was pulverized and mixed uniformly to obtain a carrier for wettable powder. Each herbicidal composition was prepared by uniformly pulverizing and mixing 90 parts by weight of the carrier for wettable powder and 10 parts by weight of the benzothiophene derivative produced in each example.
(§2) Seeds of Scirpus juncoides were sowed onto paddy field soil in a Wagner pot of 1/2000 are. Then, rice seedlings of 2.5 leaf stage were transplanted in the soil. Water was pored into the pot so as to submerge the soil at a depth of 3 cm. The pot was placed in a greenhouse maintained at 20 to 25° C. for vegetation. After 3 days from transplantation of the rice seedlings, a predetermined amount of the herbicidal composition prepared in the step [1] was applied to the pot. After 30 days from the application of the herbicidal composition, the herbicidal effect and injury to the paddy rice were determined.
(§3) The herbicidal effect and the injury to crops in the above tests (1) and (2) were evaluated based on the following ratings.
(§4) The degree of weed control (%) was calculated from the weights of the above-ground parts of fresh weeds in the treated area and the untreated area using the following equation:
(§5) Degree of weed control (%)=[1−(weight of weeds in treated area)/(weight of weeds in untreated area)]×100
(§6) The herbicidal effect was determined according to the following ratings: […]

Scirpus juncoides [2] = assay: Submersion test, treatment 10 days after transplantation: herbicidal effect; assay type: in vivo; conditions: rated 30 days after application
Experimental: as §1
as §2, with “vegetation. After 10 days from” for “vegetation. After 3 days from”
as §3, §4, §5, §6

Row | SMILES | melting point [°C] | Injury paddy rice (paddy rice; application rate 100 g/ha) | Injury paddy rice (paddy rice; application rate 200 g/ha) | Herbicidal effect Scirpus juncoides (Scirpus juncoides [1]; application rate 100 g/ha) | Herbicidal effect Scirpus juncoides (Scirpus juncoides [1]; application rate 200 g/ha) | Herbicidal effect Scirpus juncoides (Scirpus juncoides [2]; application rate 100 g/ha) | Herbicidal effect Scirpus juncoides (Scirpus juncoides [2]; application rate 200 g/ha)
1 | COCCSC1Cc2c(Cl)c(C(=O)C3C(=O)CCCC3=O)cc(C)c2S1(=O)=O (stereo not drawn) [Compound No. 45, 4-chloro-7-methyl-2-(2-methoxyethyl)thio-5-(1,3-dioxocyclohex-2-yl)carbonyl-2,3-dihydrobenzothiophene 1,1-dioxide] |  | 0 | 0 | 5 (90% or higher (almost completely dead)) | 5 (90% or higher (almost completely dead)) | 5 (90% or higher (almost completely dead)) | 5 (90% or higher (almost completely dead))
2 | Cc1cc(C(=O)C2C(=O)CCCC2=O)c(Cl)c2c1S(=O)(=O)C(S(C)(=O)=O)C2 (stereo not drawn) [Compound No. 46, 4-chloro-7-methyl-2-methanesulfonyl-5-(1,3-dioxocyclohex-2-yl)carbonyl-2,3-dihydrobenzothiophene 1,1-dioxide] |  | 0 | 0 | 5 (90% or higher (almost completely dead)) | 5 (90% or higher (almost completely dead)) | 4 (70% or higher but less than 90%) | 5 (90% or higher (almost completely dead))
3 | CSC1Cc2c(Cl)c(C(=O)C3=C(Cl)CCCC3=O)cc(C)c2S1(=O)=O (stereo not drawn) [Compound No. 49, 4-chloro-7-methyl-2-methylthio-5-(3-chloro-1-oxo-2-cyclohexen-2-yl)carbonyl-2,3-dihydrobenzothiophene 1,1-dioxide] |  | 0 | 0 | 5 (90% or higher (almost completely dead)) | 5 (90% or higher (almost completely dead)) | 5 (90% or higher (almost completely dead)) | 5 (90% or higher (almost completely dead))
4 | CSC1Cc2c(Cl)c(C(=O)C3=C(SCCO)CCCC3=O)cc(C)c2S1(=O)=O (stereo not drawn) [Compound No. 50, 4-chloro-7-methyl-2-methylthio-5-[3-(2-hydroxyethyl)thio-1-oxo-2-cyclohexen-2-yl]carbonyl-2,3-dihydrobenzothiophene 1,1-dioxide] |  | 0 | 0 | 5 (90% or higher (almost completely dead)) | 5 (90% or higher (almost completely dead)) | 5 (90% or higher (almost completely dead)) | 5 (90% or higher (almost completely dead))
5 | CSC1Cc2c(Cl)c(C(=O)C3=C(SCCOC(=O)CCl)CCCC3=O)cc(C)c2S1(=O)=O (stereo not drawn) [Compound No. 51, 4-chloro-7-methyl-2-methylthio-5-[3-(2-chloroacetoxyethyl)thio-1-oxo-2-cyclohexen-2-yl]carbonyl-2,3-dihydrobenzothiophene 1,1-dioxide] |  | 0 | 0 | 4 (70% or higher but less than 90%) | 5 (90% or higher (almost completely dead)) | 4 (70% or higher but less than 90%) | 5 (90% or higher (almost completely dead))
6 | CSC1Cc2c(Cl)c(C(=O)C3=C(n4cccn4)CCCC3=O)cc(C)c2S1(=O)=O (stereo not drawn) [Compound No. 52, 4-chloro-7-methyl-2-methylthio-5-[3-(pyrazol-1-yl) -1-oxo-2-cyclohexen-2-yl]carbonyl-2,3-dihydrobenzothiophene 1,1-dioxide] |  | 0 | 0 | 4 (70% or higher but less than 90%) | 5 (90% or higher (almost completely dead)) | 4 (70% or higher but less than 90%) | 5 (90% or higher (almost completely dead))

Second part, led by results:

Row | melting point [°C] | SMILES | Injury paddy rice (paddy rice; application rate 100 g/ha) | Injury paddy rice (paddy rice; application rate 200 g/ha) | Herbicidal effect Scirpus juncoides (Scirpus juncoides [1]; application rate 100 g/ha) | Herbicidal effect Scirpus juncoides (Scirpus juncoides [1]; application rate 200 g/ha) | Herbicidal effect Scirpus juncoides (Scirpus juncoides [2]; application rate 100 g/ha) | Herbicidal effect Scirpus juncoides (Scirpus juncoides [2]; application rate 200 g/ha)
7 | 174.7 to 175.1 | CSC1Cc2c(ccc(C(=O)C3C(=O)CCCC3=O)c2Cl)S1(=O)=O (stereo not drawn) [Compound No. 1, 4-chloro-2-methylthio-5-(1,3-dioxocyclohex-2-yl)carbonyl-2,3-dihydrobenzothiophene 1,1-dioxide] | 0 | 0 | 5 (90% or higher (almost completely dead)) | 5 (90% or higher (almost completely dead)) | 5 (90% or higher (almost completely dead)) | 5 (90% or higher (almost completely dead))
8 | 192.7 to 193.2 | CSC1Cc2c(ccc(C(=O)C3C(=O)CCCC3=O)c2C)S1(=O)=O (stereo not drawn) [Compound No. 10, 4-methyl-2-methylthio-5-(1,3-dioxocyclohex-2-yl)carbonyl-2,3-dihydrobenzothiophene 1,1-dioxide] | 0 | 0 | 5 (90% or higher (almost completely dead)) | 5 (90% or higher (almost completely dead)) | 5 (90% or higher (almost completely dead)) | 5 (90% or higher (almost completely dead))
9 | 206.1 to 211.6 | CSC1Cc2c(ccc(C(=O)C3C(=O)CCCC3=O)c2C(F)(F)F)S1(=O)=O (stereo not drawn) [Compound No. 11, 2-methylthio-4-trifluoromethyl-5-(1,3-dioxocyclohex-2-yl)carbonyl-2,3-dihydrobenzothiophene 1,1-dioxide] | 0 | 0 | 5 (90% or higher (almost completely dead)) | 5 (90% or higher (almost completely dead)) | 5 (90% or higher (almost completely dead)) | 5 (90% or higher (almost completely dead))
10 | 150.3 to 150.5 | COC(=O)C(C(=O)OC)C1=C(C(=O)c2ccc3c(c2Cl)CC(SC)S3(=O)=O)C(=O)CCC1 (stereo not drawn) [Compound No. 40, 4-chloro-2-methylthio-5-[3-(bis-methoxycarbonyl)methyl-1-oxo-2-cyclohexen-2-yl]carbonyl-2,3-dihydrobenzothiophene 1,1-dioxide] | 0 | 0 | 4 (70% or higher but less than 90%) | 5 (90% or higher (almost completely dead)) | 4 (70% or higher but less than 90%) | 5 (90% or higher (almost completely dead))
11 | 195.5 to 197 | CSC1Cc2c(Cl)c(C(=O)C3C(=O)CCCC3=O)cc(C)c2S1(=O)=O (stereo not drawn) [Compound No. 43, 4-chloro-7-methyl-2-methylthio-5-(1,3-dioxocyclohex-2-yl)carbonyl-2,3-dihydrobenzothiophene 1,1-dioxide] | 0 | 0 | 5 (90% or higher (almost completely dead)) | 5 (90% or higher (almost completely dead)) | 5 (90% or higher (almost completely dead)) | 5 (90% or higher (almost completely dead))
12 | 143.2 to 154.8 | CCSC1Cc2c(Cl)c(C(=O)C3C(=O)CCCC3=O)cc(C)c2S1(=O)=O (stereo not drawn) [Compound No. 44, 4-chloro-7-methyl-2-ethylthio-5-(1,3-dioxocyclohex-2-yl)carbonyl-2,3-dihydrobenzothiophene 1,1-dioxide] | 0 | 0 | 5 (90% or higher (almost completely dead)) | 5 (90% or higher (almost completely dead)) | 5 (90% or higher (almost completely dead)) | 5 (90% or higher (almost completely dead))
